Source: publication PMC4915350 (Journal of Medicinal Chemistry, 2016)

Tests used:
D3R [1] = settings: read-out: Ki at D3R, previously reported; using [3H]spiperone; cited from earlier work
D3R [2] = settings: concentrations up to 1 μM, data not shown; ref 22 (McCall et al. 2005); cited from earlier work
hD3R = hD3R (Homo sapiens, UniProt P35462); experiment: biochemical; format: binding
hD2R = hD2R (Homo sapiens, UniProt P14416); experiment: biochemical; format: binding
Sequence of hD2R (P14416 whole entry): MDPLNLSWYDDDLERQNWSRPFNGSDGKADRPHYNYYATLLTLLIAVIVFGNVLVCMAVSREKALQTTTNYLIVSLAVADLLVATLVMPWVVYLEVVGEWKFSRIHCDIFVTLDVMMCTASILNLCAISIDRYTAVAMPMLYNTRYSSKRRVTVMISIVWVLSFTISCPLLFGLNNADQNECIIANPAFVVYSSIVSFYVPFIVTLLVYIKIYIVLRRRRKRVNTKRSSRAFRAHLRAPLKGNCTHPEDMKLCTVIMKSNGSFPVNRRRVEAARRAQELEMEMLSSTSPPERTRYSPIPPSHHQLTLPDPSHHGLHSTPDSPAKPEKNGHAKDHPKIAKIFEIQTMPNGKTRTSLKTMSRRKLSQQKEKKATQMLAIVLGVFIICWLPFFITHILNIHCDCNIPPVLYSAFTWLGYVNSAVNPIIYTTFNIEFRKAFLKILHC

Sequence of hD3R (P35462 whole entry): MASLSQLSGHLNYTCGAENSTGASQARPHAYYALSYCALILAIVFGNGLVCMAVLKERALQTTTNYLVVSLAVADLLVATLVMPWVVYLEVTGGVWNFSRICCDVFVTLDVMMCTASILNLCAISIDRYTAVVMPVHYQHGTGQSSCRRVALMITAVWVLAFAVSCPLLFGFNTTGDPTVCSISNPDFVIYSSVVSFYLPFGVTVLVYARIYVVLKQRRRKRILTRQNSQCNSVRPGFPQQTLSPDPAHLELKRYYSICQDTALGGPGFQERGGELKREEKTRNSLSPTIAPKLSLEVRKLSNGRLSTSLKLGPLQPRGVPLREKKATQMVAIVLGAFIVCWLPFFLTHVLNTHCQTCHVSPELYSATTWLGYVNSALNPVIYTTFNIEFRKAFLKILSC

## CN[C@@H]1Cc2cccc3[nH]c(=O)n(c23)C1 [Compound 1, (R)-5,6-dihydro-5-(methylamino)-4H-imidazo[4,5,1-ij]quinolin-2(1H)-one (Z)-2-butenedioate]
D3R [1]
  Ki: 1940 nM
D3R [2]
  activity in D3R-mediated mitogenesis assay, previously reported: no activity was observed

## N[C@@H]1Cc2cccc3[nH]c(=O)n(c23)C1 [Compound 12a, (R)-5-Amino-5,6-dihydro-4H-imidazo[4,5,1-ij]quinolin-2(1H)-one]
hD3R; [3H]7-OH-DPAT as tracer
  fold reduction of D3R affinity relative to 1: ~6 fold
hD2R
  fold reduction of D2R affinity relative to 1: ~6 fold

## CCCN(CCC)[C@@H]1Cc2cccc3nc(O)n(c23)C1 [Compound 14a, (R)-5-(Dipropylamino)-5,6-dihydro-4H-imidazo[4,5,1-ij]quinolin-2(1H)-one]
hD2R
  fold decrease of D2R affinity relative to 13: ~4 fold

## CCCN(C)[C@@H]1Cc2cccc3[nH]c(=O)n(c23)C1 [Compound 14c, (R)-5-[Methyl(propyl)amino]-5,6-dihydro-4H-imidazo[4,5,1-ij]quinolin-2(1H)-one]
hD2R
  D2R selectivity over D3R (D3R/D2R): ~8 fold

## CCCN(CCC)[C@@H]1Cc2cccc3c2n(c(=O)n3CCC)C1 [Compound 15, (R)-5-(Dipropylamino)-1-propyl-5,6-dihydro-4H-imidazo[4,5,1-ij]quinolin-2(1H)-one]
hD3R
  Ki: ~3 nM
hD2R
  Ki: ~3 nM
